The source of these data is patent publication US12522612B2, “PDE4 inhibitors, pharmaceutical compositions, and therapeutic applications” (BioTheryX, Inc., priority 2019, dated 2026).

This assay deals with TNF-α. Description: Cell-based TNF-α inhibition assay in LPS-induced PBMCs (Meso Scale). Conditions: PBMC, PBMCs pretreated 1 h, LPS 100 ng/mL 18-24 h, relative to stimulated DMSO control; for inhibition at 0.1 µM: compound concentration 0.1 μM; for inhibition at 1 µM: compound concentration 1 μM. As to the method: Frozen primary blood mononuclear cells (PBMCs) were quick thawed, washed once with RPMI 1640 media supplemented with 10% fetal bovine serum, 1% penicillin, and 1% streptomycin, and plated in a 96 well plate at 200,000 cells per well. The cells were pretreated with DMSO only as a control or a compound for 1 h, and then induced with LPS (lipopolysaccharide) (100 ng/mL) for 18-24 h. The supernatant was analyzed for TNF-α using the Meso Scale assay. Compound activity was determined as a percentage of the stimulated DMSO control. The results are summarized in Table 1, where A represents a percent inhibition value ≥60%; B represents a percent inhibition value <60% and ≥40%; C represents a percent inhibition value <40% and >20%; and D represents a single percent inhibition value <20%.

As for `CCOc1cc([C@@H](CS(=O)(=O)C2CC2)N2C(=O)c3csc(NC(C)=O)c3C2=O)ccc1OC` [Compound A6, (S)—N-(5-(2-(cyclopropylsulfonyl)-1-(3-ethoxy-4-methoxyphenyl)ethyl)-4,6-dioxo-5,6-dihydro-4H-thieno[3,4-c]pyrrol-1-yl)acetamide], the inhibition at 0.1 µM is under 20% and the inhibition at 1 µM was 20 to 40%.
Consider `CC(=O)NC(=O)C(C)N1Cc2c(cc(F)cc2C2CCN(CCCCCCCCCOc3cc(C(=O)Nc4c(Cl)cncc4Cl)ccc3OC(F)F)CC2)C1=O` (stereo not drawn) [Compound B85, 3-((9-(4-(2-(1-Acetamido-1-oxopropan-2-yl)-6-fluoro-1-oxoisoindolin-4-yl)piperidin-1-yl)nonyl)oxy)-N-(3,5-dichloropyridin-4-yl)-4-(difluoromethoxy)benzamide], for which the inhibition at 1 µM fell in the range of 20 to 40%.
Still for that read-out and setting: then `COc1ccc(C2CNC(=O)C2)cc1OCCCCCCCN1CCC(c2cc(F)cc3c2CN(C2CCC(=O)NC2=O)C3=O)CC1` (stereo not drawn) [Compound B53, 3-(6-Fluoro-4-(1-(7-(2-methoxy-5-(5-oxopyrrolidin-3-yl)phenoxy)heptyl)piperidin-4-yl)-1-oxoisoindolin-2-yl)piperidine-2,6-dione], with under 20%; and `O=C1CCC(N2Cc3c(cc(F)cc3C3CCN(CCCCCCCCCOc4ccc(C(=O)Nc5c(Cl)cncc5Cl)cc4OCC4CC4)CC3)C2=O)C(=O)N1` (stereo not drawn) [Compound B84, 3-(Cyclopropylmethoxy)-N-(3,5-dichloropyridin-4-yl)-4-((9-(4-(2-(2,6-dioxopiperidin-3-yl)-6-fluoro-1-oxoisoindolin-4-yl)piperidin-1-yl)nonyl)oxy)benzamide], with at least 60%.
On to `CCOc1cc([C@@H](CS(C)(=O)=O)N2C(=O)c3cc(CCCN4CCC(c5cc(F)cc6c5CN(C5CCC(=O)NC5=O)C6=O)CC4)cc(NC(C)=O)c3C2=O)ccc1OC` (stereo partly drawn) [Compound B69, N-(6-(3-(4-(2-(2,6-Dioxopiperidin-3-yl)-6-fluoro-1-oxoisoindolin-4-yl)piperidin-1-yl)propyl)-2-((S)-1-(3-ethoxy-4-methoxyphenyl)-2-(methylsulfonyl)ethyl)-1,3-dioxoisoindolin-4-yl)acetamide], for which the inhibition at 0.1 µM was in the range of 40 to 60% and the inhibition at 1 µM was at least 60%.
Taken in the same sequence, the figures for `CCOc1cc([C@@H](CS(C)(=O)=O)N2C(=O)c3cccc(NC(=O)CCCCCCCCN4CCC(c5cc6c(cc5F)C(=O)N(C5CCC(=O)NC5=O)C6)CC4)c3C2=O)ccc1OC` (stereo partly drawn) [Compound B75, 9-(4-(2-(2,6-Dioxopiperidin-3-yl)-6-fluoro-1-oxoisoindolin-5-yl)piperidin-1-yl)-N-(2-((S)-1-(3-ethoxy-4-methoxyphenyl)-2-(methylsulfonyl)ethyl)-1,3-dioxoisoindolin-4-yl)nonanamide] were at least 60% and at least 60%.
Taken in the same sequence, the figures for `CCOc1cc([C@@H](CS(C)(=O)=O)N2C(=O)c3cccc(NC(=O)CCCCCCCCCCCNc4cccc5c4C(=O)N(C4CCC(=O)NC4=O)C5=O)c3C2=O)ccc1OC` (stereo partly drawn) [Compound B71, 12-((2-(2,6-Dioxopiperidin-3-yl)-1,3-dioxoisoindolin-4-yl)amino)-N-(2-((S)-1-(3-ethoxy-4-methoxyphenyl)-2-(methylsulfonyl)ethyl)-1,3-dioxoisoindolin-4-yl)dodecanamide] were at least 60% and at least 60%.
For `CCOc1cc([C@H](CS(=O)(=O)C2CC2)N2C(=O)c3csc(NC(C)=O)c3C2=O)ccc1OC` [Compound A10, (R)—N-(5-(2-(cyclopropylsulfonyl)-1-(3-ethoxy-4-methoxyphenyl)ethyl)-4,6-dioxo-5,6-dihydro-4H-thieno[3,4-c]pyrrol-1-yl)acetamide], the inhibition at 0.1 µM was under 20% and the inhibition at 1 µM was at least 60%.
Consider `COc1ccc(N2C(=O)c3ccsc3C2=O)cc1OCCCCCCCN1CCC(c2cc(F)cc3c2CN(C2CCC(=O)NC2=O)C3=O)CC1` (stereo not drawn) [Compound B65, 5-(3-((7-(4-(2-(2,6-Dioxopiperidin-3-yl)-6-fluoro-1-oxoisoindolin-4-yl)piperidin-1-yl)heptyl)oxy)-4-methoxyphenyl)-4H-thieno[2,3-c]pyrrole-4,6(5H)-dione], for which the inhibition at 1 µM was under 20%.
Still for that read-out and setting: the value for `CCOc1cc([C@@H](CS(C)(=O)=O)N2C(=O)c3cccc(NC(=O)CCCCCCNCc4ccc(OCc5scc6c5CN([C@H]5CCC(=O)NC5=O)C6=O)cc4)c3C2=O)ccc1OC` [Compound B44, 7-((4-((5-((S)-2,6-Dioxopiperidin-3-yl)-4-oxo-5,6-dihydro-4H-thieno[3,4-c]pyrrol-1-yl)methoxy)benzyl)amino)-N-(2-((S)-1-(3-ethoxy-4-methoxyphenyl)-2-(methylsulfonyl)ethyl)-1,3-dioxoisoindolin-4-yl)heptanamide] was at least 60%.
Take `O=C1CCC(N2C(=O)c3cccc(NCCOCCOCCOCCOc4ccc(C(=O)Nc5c(Cl)cncc5Cl)cc4OC(F)F)c3C2=O)C(=O)N1` (stereo not drawn) [Compound B74, N-(3,5-Dichloropyridin-4-yl)-3-(difluoromethoxy)-4-(2-(2-(2-(2-((2-(2,6-dioxopiperidin-3-yl)-1,3-dioxoisoindolin-4-yl)amino)ethoxy)ethoxy)ethoxy)ethoxy)benzamide]: the inhibition at 0.1 µM was at least 60% and the inhibition at 1 µM was at least 60%.
Regarding `O=C1CCC(N2Cc3c(cc(F)cc3C3CCN(CCCCCCCCCCCCOc4cc(C(=O)Nc5c(Cl)cncc5Cl)ccc4OC(F)F)CC3)C2=O)C(=O)N1` (stereo not drawn) [Compound B73, N-(3,5-Dichloropyridin-4-yl)-4-(difluoromethoxy)-3-((12-(4-(2-(2,6-dioxopiperidin-3-yl)-6-fluoro-1-oxoisoindolin-4-yl)piperidin-1-yl)dodecyl)oxy)benzamide], the inhibition at 0.1 µM is at least 60% and the inhibition at 1 µM is at least 60%.
For `CCOc1cc([C@@H](CS(C)(=O)=O)N2C(=O)c3cccc(NC(=O)CCOCCOCCOCCNc4cccc5c4C(=O)N(C4CCC(=O)NC4=O)C5=O)c3C2=O)ccc1OC` (stereo partly drawn) [Compound B43, 3-(2-(2-(2-((2-(2,6-Dioxopiperidin-3-yl)-1,3-dioxoisoindolin-4-yl)amino)ethoxy)-ethoxy)ethoxy)-N-(2-((S)-1-(3-ethoxy-4-methoxyphenyl)-2-(methylsulfonyl)ethyl)-1,3-dioxoisoindolin-4-yl)propanamide], the inhibition at 0.1 µM was at least 60% and the inhibition at 1 µM is at least 60%.
On to `CCOc1cc([C@@H](CS(C)(=O)=O)N2C(=O)c3cc(C#CCCCCCN4CCC(c5cc(F)cc6c5CN(C5CCC(=O)NC5=O)C6=O)CC4)cc(NC(C)=O)c3C2=O)ccc1OC` (stereo partly drawn) [Compound B47, N-(6-(7-(4-(2-(2,6-dioxopiperidin-3-yl)-6-fluoro-1-oxoisoindolin-4-yl)piperidin-1-yl)hept-1-yn-1-yl)-2-((S)-1-(3-ethoxy-4-methoxyphenyl)-2-(methylsulfonyl)ethyl)-1,3-dioxoisoindolin-4-yl)acetamide], for which the inhibition at 1 µM is at least 60%.
As to `Cc1ncsc1-c1ccc(CNC(=O)[C@@H]2C[C@@H](O)CN2C(=O)[C@@H](NC(=O)CCCCCCCCOc2cc(C(=O)Nc3c(Cl)cncc3Cl)ccc2OC(F)F)C(C)(C)C)cc1` [Compound B68, (2S,4R)-1-((S)-2-(9-(5-((3,5-Dichloropyridin-4-yl)carbamoyl)-2-(difluoromethoxy)phenoxy)nonanamido)-3,3-dimethylbutanoyl)-4-hydroxy-N-(4-(4-methylthiazol-5-yl)benzyl)pyrrolidine-2-carboxamide], the inhibition at 0.1 µM is at least 60% and the inhibition at 1 µM was at least 60%.

For orientation: inhibition means how much of the control response was suppressed.
